Test results taken from US20250064794A1, “A THERAPEUTIC COMBINATION COMPRISING A TIGIT ANTAGONIST, A PD-1 ANTAGONIST, AND LENVATINIB” (EISAI R&D MANAGEMENT CO., LTD., priority 2021, published 2025).

Tests used:
[1] = in vivo; cited from earlier work
[2] = tested on: CT26 tumor; assay: Anti-tumor efficacy in CT26 tumor model; assay type: in vivo, female BALB/c mice
From the text: The present Example describes anti-tumor effects of a combination of a TIGIT antagonist, a PD-1 antagonist and lenvatinib using a CT26 tumor model.
Prior to treatment initiation, female BALB/c mice aged 8 weeks weighing between 18 to 21 grams were anesthetized and subcutaneously injected into the rear flank with 0.3×10^6 CT26 log-phase sub-confluent cells. When the mean tumor volume of inoculated animals with CT26 reached approximately 146 mm^3 (13 days later) mice were pair-matched into 8 treatment groups consisting of 10 mice per group.
Antibody Reagents in this Example Include: • Anti-PD-1 mIgG1 antibody, which is a murinized version of a rat anti-mouse PDT Ab with a mouse IgG1 Fe; • Anti-TIGIT mIgG2a antibody having a mouse Fe region of mIgG2a subtype that is the murine counterpart isotype to human isotype IgG1; • Isotype mIgG1 antibody, which is a mouse IgG1 isotype-matched control monoclonal antibody specific for adenoviral hexon 25; and • Isotype mIgG2a antibody, which is a mouse IgG2a isotype-matched control monoclonal antibody specific for adenoviral hexon 25.
• 1) 0.5% methylcellulose (Vehicle)+isotype mIgG1 antibody+isotype mIgG2a antibody; • 2) Vehicle+anti-PD-1 mIgG1 antibody+isotype mIgG1 antibody; • 3) Vehicle+isotype mIgG1 antibody+anti-TIGIT mIgG2a antibody; • 4) Lenvatinib+isotype mIgG1 antibody+isotype mIgG2a antibody; • 5) Vehicle+anti-PD-1 mIgG1 antibody+anti-TIGIT mIgG2a antibody; • 6) Lenvatinib+anti-PD-1 mIgG1 antibody+isotype mIgG2a antibody; • 7) Lenvatinib+isotype mIgG1 antibody+anti-TIGIT mIgG2a antibody; and • 8) Lenvatinib+anti-PD-1 mIgG1 antibody+anti-TIGIT mIgG2a antibody.
Vehicle and lenvatinib were orally gavage-dosed once daily (QD) at 10 mg/kg body weight. Isotype control, a mouse monoclonal antibody specific for adenoviral hexon on IgG1 or IgG2a backbones, as well as anti-PD-1 and anti-TIGIT antibodies were dosed intraperitoneally every 5 days at 10 mg/kg body weight. Start of treatments was considered Day 0 and dosing based on described schedules continued as described until Day 40. […]

[3] = Day 40, 10 mice per group, lenvatinib 10 mg/kg QD, antibodies 10 mg/kg IP every 5 days

For COc1cc2nccc(Oc3ccc(NC(=O)NC4CC4)c(Cl)c3)c2cc1C(N)=O [Lenvatinib monotherapy, 4-[3-chloro-4-(cyclopropylaminocarbonyl)aminophenoxy]-7-methoxy-6-quinolinecarboxamide], the half-life [1] is listed as 28 h, the “TGI at Day 12” value ([2]; CT26 s.c. tumors, treatment started at 146 mm^3, lenvatinib 10 mg/kg orally QD, antibodies 10 mg/kg intraperitoneally every 5 days, vs Vehicle group at Day 12) is listed as 36% (p = 0.014) and the “End of study CRs (complete tumor regressions)” value [2, 3] is listed as 0 CRs, 0 PRs. For the same compound, the “End of study PRs (partial tumor regressions)” value [2, 3] was 0 CRs, 0 PRs.
